From patent publication US11339142B2, “Di-substituted pyrazole compounds for the treatment of diseases” (FGH BIOTECH, INC., priority 2016, dated 2022)

What was measured:
SCD1 expression = test: Quantitative PCR (qPCR) inhibition assay, SCD1 mRNA expression in Hep G2 cells; type: cell-based; conditions: Homo sapiens, HepG2 cells, 24 hours incubation, mRNA by qPCR, read-out: SCD1 Inhibition Percentage (%) at 1 μM
Procedure: Hep G2 cells were obtained from ATCC and grown in DMEM supplemented with 10% FBS in a 5% CO2 incubator at 37° C. For the assay the cells were plated in 96 well plates at a concentration of 75,000 cells/well in DMEM with 5% FBS. The compounds were serially diluted in DMSO from 30 to 0.1 mM and then diluted 1:1000 in growth medium. The medium was added to the cells in duplicate 24 hours after plating. After 24 hours of incubation the RNA was isolated from the cells using the RNAqueous®-96 Total RNA Isolation Kit (Ambion). The eluted RNA was reverse transcribed using the Cells-to-Ct kit reverse transcriptase (Ambion). For the quantitative PCR the cDNA was analyzed using the Power SYBR® Green PCR Master Mix (Applied Biosystems) and gene specific primers. The reaction was run on an ABI7300 thermocycler and the instrument software was used to determine the Ct values. The fold change of mRNA expression relative to the vehicle control was calculated using the method by Livak. Primer sequence was as follows: SCD1, 5′-[…]-3′/5′-[…]-3′.
(§1) All data for Biological Examples 1a and 1b were measured in HepG2 cells. % inhibition of SCD1 expression, % inhibition of PCSK9 expression, and PCSK9 IC50 data are provided in Table 1. NA means the compound was not active at the concentration tested.

PCSK9 expression = test: Quantitative PCR (qPCR) inhibition assay, PCSK9 mRNA expression in Hep G2 cells; type: cell-based; conditions: Homo sapiens, HepG2 cells, 24 hours incubation, mRNA by qPCR; for inhibition at 0.32 µM: 320 nM, read-out: PCSK9 Inhibition Percentage (%) at 320 nM
Procedure: Hep G2 cells were obtained from ATCC and grown in DMEM supplemented with 5% FBS in a 5% CO2 incubator at 37° C. For the assay the cells were plated in 24 well plates at a concentration of 100,000 cells/well in DMEM with 5% FBS. The compounds were serially diluted in DMSO from 0.1 to 20 mM and then diluted 1:1000 in growth medium. The medium was added to the cells in duplicate 24 hours after plating. After 24 hours of incubation the RNA was isolated from the cells using the illustra RNAspin Mini kit (GE Healthcare). For the quantitative PCR the RNA was analyzed using the Power SYBR® Green PCR Master Mix (Applied Biosystems) and gene specific primers. The reaction was run on a StepOnePlus Real-Time PCR System (Thermo Fisher Scientific) and the instrument software was used to determine the Ct values. The fold change of mRNA expression relative to the vehicle control was calculated. Primer sequence was as follows: PCSK9, 5′-[…]-3′/5′-[…]-3′.
as §1

Row | IC50 (PCSK9 expression) [nM] | Structure (SMILES) | inhibition at 1 µM (SCD1 expression) [%] | inhibition at 0.32 µM (PCSK9 expression) [%]
1 | – | CCCn1cc(-n2cc(-c3ccc(OC4CCCC4)nc3C)cn2)ccc1=O [Example 1, 5-(4-(6-(cyclopentyloxy)-2-methylpyridin-3-yl)-1H-pyrazol-1-yl)-1-propylpyridin-2(1H)-one] | ≥ 40 | –
2 | – | CCCn1cc(-n2cc(-c3ccc(OC(C)C)nc3C)cn2)ccc1=O [Example 2] | ≥ 40 | –
3 | – | CCCn1cc(-n2cc(-c3ccc(OC(C)CC)nc3C)cn2)ccc1=O (stereo not shown) [Example 3] | ≥ 40 | 10 to 40
4 | – | CCCn1cc(-n2cc(-c3ccc(OC(F)(F)F)cc3Cl)cn2)ccc1=O [Example 4] | ≥ 40 | –
5 | – | CCCn1cc(-n2cc(-c3ccc(OCC(C)C)nc3C)cn2)ccc1=O [Example 5] | ≥ 40 | ≥ 40
6 | 150 to 600 | CCCn1cc(-n2cc(-c3ccc(OCC4CC4)nc3C)cn2)ccc1=O [Example 6] | ≥ 40 | 10 to 40
7 | – | CCCn1cc(-n2cc(-c3ccc(OC4CCC4)nc3C)cn2)ccc1=O [Example 7] | ≥ 40 | –
8 | 150 to 600 | CCCn1cc(-n2cc(-c3ccc(OCC(C)C)cc3Cl)cn2)ccc1=O [Example 8] | – | ≥ 40
9 | – | CCCn1cc(-n2cc(-c3ccc(O[C@@H](C)CC)nc3C)cn2)ccc1=O [Example 9] | ≥ 40 | ≥ 40
10 | – | CCCn1cc(-n2cc(-c3ccc(OC(C)C4CC4)nc3C)cn2)ccc1=O (stereo not shown) [Example 11] | ≥ 40 | –
11 | – | CCCn1cc(-n2cc(-c3ccc(OC4CC4)nc3C)cn2)ccc1=O [Example 12] | 10 to 40 | –
12 | ≤ 150 | CCCn1cc(-n2cc(-c3ccc(OCC4(CO)CC4)nc3C)cn2)ccc1=O [Example 13] | – | ≥ 40
13 | ≤ 150 | CCCn1cc(-n2cc(-c3ccc(OCC(C)(C)CO)nc3C)cn2)ccc1=O [Example 14] | – | ≥ 40
14 | ≤ 150 | CCCn1cc(-n2cc(-c3ccc(OCC4(CO)COC4)nc3C)cn2)ccc1=O [Example 15] | – | ≥ 40
15 | ≤ 150 | CCCn1cc(-n2cc(-c3ccc(OCC4(CO)CCC4)nc3C)cn2)ccc1=O [Example 16] | – | ≥ 40
16 | – | CCCn1cc(-n2cc(-c3ccc(S(=O)(=O)CC4CC4)cc3Cl)cn2)ccc1=O [Example 19] | ≥ 40 | –
17 | – | CCCn1cc(-n2cc(-c3ccc(S(=O)(=O)C(CC)CC)cc3Cl)cn2)ccc1=O [Example 20] | ≥ 40 | –
18 | – | CCCn1cc(-n2cc(-c3ccc(S(=O)(=O)C(C)C)cc3F)cn2)ccc1=O [Example 21] | ≥ 40 | –
19 | – | CCCn1cc(-n2cc(-c3ccc(S(=O)(=O)C(C)C)cc3)cn2)ccc1=O [Example 25] | ≥ 40 | –
20 | – | CCCn1cc(-n2cc(-c3ccc(OCC4CC4)cc3Cl)cn2)ccc1=O [Example 26] | – | ≥ 40
21 | – | CCCn1cc(-n2cc(-c3ccc(OCC4CC4)c(F)c3)cn2)ccc1=O [Example 27] | – | < 10
22 | – | CCCn1cc(-n2cc(-c3cc(F)c(OCC4CC4)c(F)c3)cn2)ccc1=O [Example 28] | – | < 10
23 | – | CCCn1cc(-n2cc(-c3ccc(OCC4CC4)c(C)c3)cn2)ccc1=O [Example 29] | – | < 10
24 | – | CCCn1cc(-n2cc(-c3ccc(OCC4CC4)cc3F)cn2)ccc1=O [Example 30] | – | 10 to 40
25 | – | CCCn1cc(-n2cc(-c3ccc(OCC(C)C)cc3F)cn2)ccc1=O [Example 31] | – | 10 to 40
26 | – | CCCn1cc(-n2cc(-c3ccc(OCC4(CO)CC4)cc3Cl)cn2)ccc1=O [Example 32] | ≥ 40 | –
27 | – | CCCn1cc(-n2cc(-c3ccc(OCCCO)cc3Cl)cn2)ccc1=O [Example 33] | ≥ 40 | –

Row | IC50 (PCSK9 expression) [nM] | Structure (SMILES) | inhibition at 1 µM (SCD1 expression) [%] | inhibition at 0.32 µM (PCSK9 expression) [%]
28 | – | CCCn1cc(-n2cc(-c3ccc(OC(C)C4CC4)cc3Cl)cn2)ccc1=O (stereo not shown) [Example 34] | ≥ 40 | –
29 | – | CCCn1cc(-n2cc(-c3ccc(O[C@@H](C)CC)cc3Cl)cn2)ccc1=O [Example 35] | ≥ 40 | –
30 | – | CCCn1cc(-n2cc(-c3ccc(O[C@H](C)CC)cc3Cl)cn2)ccc1=O [Example 36] | ≥ 40 | –
31 | – | CCCn1cc(-n2cc(-c3ccc(OC(C)CO)cc3Cl)cn2)ccc1=O (stereo not shown) [Example 37] | ≥ 40 | –
32 | – | CCCn1cc(-n2cc(-c3ccc(OC(CC)CC)cc3Cl)cn2)ccc1=O [Example 38] | – | ≥ 40
33 | 150 to 600 | CCCn1cc(-n2cc(-c3ccc(OCC4(CO)COC4)cc3Cl)cn2)ccc1=O [Example 39] | – | ≥ 40
34 | – | CCCn1cc(-n2cc(-c3ccc(OC(C)C)cc3Cl)cn2)ccc1=O [Example 40] | 10 to 40 | –
35 | – | CCCn1cc(-n2cc(-c3ccc(O[C@H](C)CC)cc3)cn2)ccc1=O [Example 41] | ≥ 40 | –
36 | – | CCCn1cc(-n2cc(-c3ccc(OC(C)CO)cc3)cn2)ccc1=O (stereo not shown) [Example 42] | 10 to 40 | –
37 | – | CCCn1cc(-n2cc(-c3ccc(OC)cc3Cl)cn2)ccc1=O [Example 45, 5-(4-(2-chloro-4-methoxyphenyl)-1H-pyrazol-1-yl)-1-propylpyridin-2(1H)-one] | 10 to 40 | –
38 | – | CCCn1cc(-n2cc(-c3ccc(OC)cc3)cn2)ccc1=O [Example 46, 5-(4-(4-methoxyphenyl)-1H-pyrazol-1-yl)-1-propylpyridin-2(1H)-one] | 10 to 40 | –
39 | – | CCCn1cc(-n2cc(-c3ccc(OC(C)CCO)cc3Cl)cn2)ccc1=O (stereo not shown) [Example 47, 5-(4-(2-chloro-4-((4-hydroxybutan-2-yl)oxy)phenyl)-1H-pyrazol-1-yl)-1-propylpyridin-2(1H)-one] | ≥ 40 | –
40 | – | CCCn1cc(-n2cc(-c3ccc(OCC(C)(C)CO)cc3Cl)cn2)ccc1=O [Example 48, 5-(4-(2-chloro-4-(3-hydroxy-2,2-dimethylpropoxy)phenyl)-1H-pyrazol-1-yl)-1-propylpyridin-2(1H)-one] | ≥ 40 | –
41 | ≤ 150 | CCCn1cc(-n2cc(-c3ccc(OCC4(CO)CCC4)cc3Cl)cn2)ccc1=O [Example 49, 5-(4-(2-chloro-4-((1-(hydroxymethyl)cyclobutyl)methoxy)phenyl)-1H-pyrazol-1-yl)-1-propylpyridin-2(1H)-one] | – | ≥ 40
42 | – | Cc1nc(OC2CCCC2)ccc1-c1cnn(-c2ccc(=O)n(CC(C)C)c2)c1 [Example 50, 5-(4-(6-(cyclopentyloxy)-2-methylpyridin-3-yl)-1H-pyrazol-1-yl)-1-isobutylpyridin-2(1H)-one] | ≥ 40 | –
43 | – | CCCn1cc(-n2cc(-c3ccc(S(=O)(=O)CC)cc3)cn2)ccc1=O [Example 51, 5-(4-(4-(ethylsulfonyl)phenyl)-1H-pyrazol-1-yl)-1-propylpyridin-2(1H)-one] | ≥ 40 | –
44 | – | CCCn1cc(-n2cc(-c3ccc(S(=O)(=O)C(C)C)nc3C)cn2)ccc1=O [Example 52, 5-(4-(6-(isopropylsulfonyl)-2-methylpyridin-3-yl)-1H-pyrazol-1-yl)-1-propylpyridin-2(1H)-one] | – | < 10
45 | – | CCCn1cc(-n2cc(-c3cnc(OC(C)C)nc3)cn2)ccc1=O [Example 53, 5-(4-(2-isopropoxypyrimidin-5-yl)-1H-pyrazol-1-yl)-1-propylpyridin-2(1H)-one] | – | < 10
46 | – | CCCn1cc(-n2cc(-c3cnc(S(=O)(=O)C(C)C)nc3)cn2)ccc1=O [Example 54, 5-(4-(2-(isopropylsulfonyl)pyrimidin-5-yl)-1H-pyrazol-1-yl)-1-propylpyridin-2(1H)-one] | – | < 10
47 | – | CCCn1cc(-n2cc(-c3ccc(S(=O)(=O)CC)cc3Cl)cn2)ccc1=O [Example 55, 5-(4-(2-chloro-4-(ethylsulfonyl)phenyl)-1H-pyrazol-1-yl)-1-propylpyridin-2(1H)-one] | ≥ 40 | –
48 | – | CCCn1cc(-n2cc(-c3ccc(S(=O)(=O)C4CC4)cc3)cn2)ccc1=O [Example 64] | ≥ 40 | –
49 | ≤ 150 | CCCn1cc(-n2cc(-c3ccc(S(=O)(=O)C4CCC4)cc3C)cn2)ccc1=O [Example 78] | – | ≥ 40
50 | – | CCCn1cc(-n2cc(-c3ccc(S(=O)(=O)C4CCC(F)(F)CC4)cc3C)cn2)ccc1=O [Example 79] | – | 10 to 40
51 | – | CCCn1cc(-n2cc(-c3ccc(S(=O)(=O)C4CC(F)(F)C4)cc3C)cn2)ccc1=O [Example 80] | – | 10 to 40
52 | ≤ 150 | CCCn1cc(-n2cc(-c3ccc(OCC4(CO)CC4)cc3C)cn2)ccc1=O [Example 81] | – | ≥ 40
53 | – | CCCn1cc(-n2cc(-c3ccc(OCC(F)(F)CO)nc3C)cn2)ccc1=O [Example 82] | – | ≥ 40
